Values after ≈ are worked out from the molar mass of the structure shown. Where two headings read alike, the source gives them in different places. Starred links: 1 amine or outer side, 2 acyl side, 3 side chain; linkers in the order of their positions; H or OH if unused. Positions of bridges follow the written chain, without caps; N, C: chain ends. Non-standard residues stand in square brackets, D forms with d. Residues, ends and D or L forms follow the SMILES beside them. *: point of attachment. hTyr(3S-OH,4S-OH,3'-OSO3H) = N[C@H](C(=O)O)[C@H](O)[C@@H](O)c1ccc(O)c(OS(=O)(=O)O)c1; pTerphenylCO(4''-OnC5H11) = CCCCCOc1ccc(-c2ccc(-c3ccc(C(=O)*)cc3)cc2)cc1; Orn(4R-OH,5R-OH) = O=C([C@H](C[C@@H](O)[C@@H](O)N[*:3])N[*:1])[*:2]; hTyr(3S-OH,4S-OH) = N[C@H](C(=O)O)[C@H](O)[C@@H](O)c1ccc(O)cc1; Pro(3S-OH,4S-Me) = C[C@H]1CN[C@H](C(=O)O)[C@H]1O; X1 = CCCCCOc1ccc(-c2cc(-c3ccc(C(=O)*)cc3)no2)cc1; Gln(3R-OH) = NC(=O)C[C@@H](O)[C@H](N)C(=O)O; Hyp = O=C(O)[C@@H]1C[C@@H](O)CN1
Experiments:
[1] = rat, intravenous; cited from earlier work
Aspergillus nidulans [2] = conditions: 13 isolates; cited from earlier work
Candida galbrata = conditions: 747 isolates; cited from earlier work
[3] = Toxicology observations in the rat inhalation/IV study (mortality, clinical signs, body weight, necropsy); type: in vivo; conditions: male rats, nose-only inhalation or intravenous injection, 2 mg/kg
Method: A detailed, hand-held physical examination was conducted on all animals once during the quarantine period (prior to randomization). During the treatment period, the animals were observed daily for mortality or evidence of moribundity; these checks were separated by a minimum of four hours. Daily cage-side clinical observations were conducted during exposure, and daily hand-held clinical observations were conducted before and after exposure. Observations included, but were not limited to the following: changes in the skin and fur, eyes, and mucous membranes; effects on the respiratory, circulatory, autonomic and central nervous systems; and effects on somatomotor activity and behavior pattern.
Body Weights and Body Weight Changes: Body weights were determined one day after animal receipt; at randomization; and prior to exposure on Study Day 1, 2, 3 and 7 (as applicable based on scheduled euthanization).

Candida tropicalis = conditions: 625 isolates; cited from earlier work
Candida guilliermondii = conditions: 61 isolates; cited from earlier work
Candida krusei = conditions: 136 isolates; cited from earlier work
Aspergillus fumigatus [4] = conditions: 1691 isolates; cited from earlier work
Aspergillus fumigatus [5] = conditions: 56 isolates; cited from earlier work
Candida albicans = conditions: 2869 isolates; cited from earlier work
Aspergillus terrus [6] = conditions: 385 isolates; cited from earlier work
Aspergillus flavus [7] = conditions: 13 isolates; cited from earlier work
Aspergillus terrus [8] = conditions: 11 isolates; cited from earlier work
in vivo = conditions: Sprague-Dawley, rat
Method: Tissue specimens (lung, liver and kidney) were collected from three animals per time point at 0.5, 2, 24 and 48 hours and 7 days after dose administration. All tissue specimens were stored frozen at approximately −70° C. until analyzed.
In Vivo Details: Thirty Sprague-Dawley derived rats [Crl:CD®(CD)Br] were obtained from Charles River Laboratories, Inc., Wilmington, Mass., for use in this study. The rats were 52 days of age (approximately 7.5 weeks) upon arrival. One day following receipt, body weights of the rats ranged from 171 g to 213 g. The animals were held in quarantine for 7 days prior to administration of the test article. […] Before being released from quarantine, the animals were given a detailed, hand-held physical examination to ensure their health and suitability as test subjects. The test animals were approximately 8.5 weeks old at the start of the first exposure to the test article.
The resulting solution was aseptically filtered and kept refrigerated between 2-8° C. until used.
Test Article Dosing: The animals were randomized into two groups of 15 animals based on body weight.
Inhalation Exposure Methods:
All study animals surviving to scheduled necropsy were euthanized by an overdose of an intraperitoneal injection of sodium pentobarbital at 35-45 mg/kg. Tissue specimens (lung, liver and kidney) were collected from three animals per time point at 0.5, 2, 24 and 48 hours and 7 days after dose administration. All tissue specimens were stored frozen at approximately −70° C. until analyzed.
After shaking for five minutes, the sample was centrifuged at 4° C. for 10 minutes to remove precipitated proteins and supernatant was transferred to an autosampler tube, diluted with 0.5 mL of water, and vortex-mixed for instrumental analysis.
Subsequently, 100 μL of the supernatant was transferred to a 2 mL centrifuge tube and processed for analysis using the same procedure as for plasma.
Tissue results in ng were converted to g/g using the amount of tissue extracted and the final extract volume.

Aspergillus niger [9] = conditions: 10 isolates; cited from earlier work
Aspergillus flavus [10] = conditions: 432 isolates; cited from earlier work
Aspergillus versicolor = conditions: 75 isolates; cited from earlier work
Aspergillus niger [11] = conditions: 440 isolates; cited from earlier work
[12] = rat, 2 mg/kg, cited from earlier work
Aspergillus nidulans [13] = conditions: 192 isolates; cited from earlier work
Candida parapsilosis = conditions: 759 isolates; cited from earlier work
[14] = cited from earlier work

In the case of `CCCCCOc1ccc(-c2cc(-c3ccc(C(=O)N[C@H]4C[C@@H](O)[C@@H](O)NC(=O)[C@@H]5[C@@H](O)[C@@H](C)CN5C(=O)[C@H]([C@H](O)CC(N)=O)NC(=O)[C@H]([C@H](O)[C@@H](O)c5ccc(O)c(OS(=O)(=O)O)c5)NC(=O)[C@@H]5C[C@@H](O)CN5C(=O)[C@H]([C@@H](C)O)NC4=O)cc3)no2)cc1` [micafungin] (X1-[Orn(4R-OH,5R-OH)]T[Hyp][hTyr(3S-OH,4S-OH,3'-OSO3H)][Gln(3R-OH)][Pro(3S-OH,4S-Me)]; lactam 1-C), the “exposure in kidney relative to plasma” value [1] is given as 3.4 fold, the “exposure in liver relative to plasma” value [1] is given as 1.6 fold and the “exposure in lung relative to plasma” value [1] is given as 2.9 fold.
For `CC[C@H](C)C[C@H](C)CCCCCCCCC(=O)N[C@H]1C[C@@H](O)[C@@H](NCCN)NC(=O)[C@@H]2[C@@H](O)CCN2C(=O)[C@H]([C@H](O)CCN)NC(=O)[C@H]([C@H](O)[C@@H](O)c2ccc(O)cc2)NC(=O)[C@@H]2C[C@@H](O)CN2C(=O)[C@H]([C@@H](C)O)NC1=O` [Caspofungin, caspofungin], the “MIC90 Average (Geometric Mean MIC)” value (Aspergillus nidulans [2]) is listed as 0.44 mg/L (≈ 0.402 µM), the “MIC90 Range” value (Aspergillus nidulans [2]) is listed as 0.2 to 4 mg/L and the MIC90 (Candida galbrata) is listed as 0.12 mg/L (≈ 0.11 µM). For the same compound, the “clinical signs of toxicity” value [3] was “no clinical signs of toxicity”, the “effects on body weight” value [3] was “no effects on body weight” and the gross necropsy findings [3] was “no gross necropsy findings attributable to exposure to the test article”. The test-article related mortality [3] was “no test-article related mortality”, the MIC90 (Candida tropicalis) was 0.06 mg/L (≈ 0.0549 µM) and the MIC90 (Candida guilliermondii) was 2 mg/L (≈ 1.83 µM). The MIC90 (Candida krusei) was 0.06 mg/L (≈ 0.0549 µM), the “MEC Average (Mode, most frequent MEC)” value (Aspergillus fumigatus [4]) was 0.25 µg/mL and the “MEC Range” value (Aspergillus fumigatus [4]) was 0.016 to 32 µg/mL. The “MIC90 Average (Geometric Mean MIC)” value (Aspergillus fumigatus [5]) was 0.25 mg/L (≈ 0.229 µM), the “MIC90 Range” value (Aspergillus fumigatus [5]) was 0.12 to 4 mg/L and the MIC90 (Candida albicans) was 0.06 mg/L (≈ 0.0549 µM). The “MEC Average (Mode, most frequent MEC)” value (Aspergillus terrus [6]) was 0.06 µg/mL, the “MEC Range” value (Aspergillus terrus [6]) was 0.016 to 2 µg/mL and the “MIC90 Average (Geometric Mean MIC)” value (Aspergillus flavus [7]) was 0.2 mg/L (≈ 0.183 µM). The “MIC90 Range” value (Aspergillus flavus [7]) was 0.06 to 2 mg/L, the “MIC90 Average (Geometric Mean MIC)” value (Aspergillus terrus [8]) was 0.12 mg/L (≈ 0.11 µM) and the “MIC90 Range” value (Aspergillus terrus [8]) was 0.06 to .2 mg/L. It also gave a concentration at 0.5 h (in vivo; kidney, inhaled, 2 mg/kg) of 160 ng/g, a concentration at 2 h (in vivo; kidney, inhaled, 2 mg/kg) of 160 ng/g and a concentration at 24 h (in vivo; kidney, inhaled, 2 mg/kg) of 160 ng/g. The concentration at 48 h (in vivo; kidney, inhaled, 2 mg/kg) was 120 ng/g, the concentration at 168 h (in vivo; kidney, inhaled, 2 mg/kg) was 20 ng/g and the concentration at 0.5 h (in vivo; kidney, iv, 2 mg/kg) was 500 ng/g. For the same compound, the concentration at 2 h (in vivo; kidney, iv, 2 mg/kg) was 670 ng/g, the concentration at 24 h (in vivo; kidney, iv, 2 mg/kg) was 500 ng/g and the concentration at 0.5 h (in vivo; liver, inhaled, 2 mg/kg) was 90 ng/g. For the same compound, the concentration at 2 h (in vivo; liver, inhaled, 2 mg/kg) was 130 ng/g, the concentration at 24 h (in vivo; liver, inhaled, 2 mg/kg) was 300 ng/g and the concentration at 48 h (in vivo; liver, inhaled, 2 mg/kg) was 180 ng/g. The concentration at 168 h (in vivo; liver, inhaled, 2 mg/kg) was 20 ng/g, the concentration at 0.5 h (in vivo; liver, iv, 2 mg/kg) was 250 ng/g and the concentration at 2 h (in vivo; liver, iv, 2 mg/kg) was 310 ng/g. The concentration at 24 h (in vivo; liver, iv, 2 mg/kg) was 660 ng/g, the concentration at 0 h (in vivo; lung, inhaled, 2 mg/kg) was 10800 ng/g and the concentration at 0.5 h (in vivo; lung, inhaled, 2 mg/kg) was 10800 ng/g. It also gave a concentration at 2 h (in vivo; lung, inhaled, 2 mg/kg) of 10400 ng/g, a concentration at 24 h (in vivo; lung, inhaled, 2 mg/kg) of 5310 ng/g and a concentration at 39 h (in vivo; lung, inhaled, 2 mg/kg) of 5420 ng/g. For the same compound, the concentration at 48 h (in vivo; lung, inhaled, 2 mg/kg) was 3370 ng/g, the concentration at 78 h (in vivo; lung, inhaled, 2 mg/kg) was 2710 ng/g and the concentration at 117 h (in vivo; lung, inhaled, 2 mg/kg) was 1350 ng/g. For the same compound, the concentration at 156 h (in vivo; lung, inhaled, 2 mg/kg) was 680 ng/g, the concentration at 168 h (in vivo; lung, inhaled, 2 mg/kg) was 390 ng/g and the concentration at 195 h (in vivo; lung, inhaled, 2 mg/kg) was 340 ng/g. For the same compound, the concentration at 273 h (in vivo; lung, inhaled, 2 mg/kg) was 80 ng/g, the concentration at 312 h (in vivo; lung, inhaled, 2 mg/kg) was 40 ng/g and the concentration at 351 h (in vivo; lung, inhaled, 2 mg/kg) was 20 ng/g. The concentration at 0 h (in vivo; lung, inhaled, 7.2 mg/kg) was 39000 ng/g, the concentration at 39 h (in vivo; lung, inhaled, 7.2 mg/kg) was 19500 ng/g and the concentration at 78 h (in vivo; lung, inhaled, 7.2 mg/kg) was 9750 ng/g. The concentration at 117 h (in vivo; lung, inhaled, 7.2 mg/kg) was 4880 ng/g, the concentration at 156 h (in vivo; lung, inhaled, 7.2 mg/kg) was 2440 ng/g and the concentration at 195 h (in vivo; lung, inhaled, 7.2 mg/kg) was 1220 ng/g. It also gave a concentration at 273 h (in vivo; lung, inhaled, 7.2 mg/kg) of 300 ng/g, a concentration at 312 h (in vivo; lung, inhaled, 7.2 mg/kg) of 150 ng/g and a concentration at 351 h (in vivo; lung, inhaled, 7.2 mg/kg) of 80 ng/g. The concentration at 0.5 h (in vivo; lung, iv, 2 mg/kg) was 590 ng/g, the concentration at 2 h (in vivo; lung, iv, 2 mg/kg) was 540 ng/g and the concentration at 24 h (in vivo; lung, iv, 2 mg/kg) was 180 ng/g. For the same compound, the concentration at 48 h (in vivo; lung, iv, 2 mg/kg) was 90 ng/g, the concentration at 168 h (in vivo; lung, iv, 2 mg/kg) was 0 ng/g and the concentration at 0.5 h (in vivo; plasma, inhaled, 2 mg/kg) was 2.03 µg/mL. For the same compound, the concentration at 24 h (in vivo; plasma, inhaled, 2 mg/kg) was 0.23 µg/mL, the concentration at 48 h (in vivo; plasma, inhaled, 2 mg/kg) was 0.08 µg/mL and the concentration at 168 h (in vivo; plasma, inhaled, 2 mg/kg) was 0 µg/mL. For the same compound, the concentration at 0.5 h (in vivo; plasma, iv, 2 mg/kg) was 11 µg/mL, the concentration at 2 h (in vivo; plasma, iv, 2 mg/kg) was 7.72 µg/mL and the concentration at 24 h (in vivo; plasma, iv, 2 mg/kg) was 0.8 µg/mL. For the same compound, the “MIC90 Average (Geometric Mean MIC)” value (Aspergillus niger [9]) was 0.14 mg/L (≈ 0.128 µM), the “MIC90 Range” value (Aspergillus niger [9]) was 0.06 to 0.5 mg/L and the “MEC Average (Mode, most frequent MEC)” value (Aspergillus flavus [10]) was 0.06 µg/mL. The “MEC Range” value (Aspergillus flavus [10]) was 0.016 to 32 µg/mL, the “MEC Average (Mode, most frequent MEC)” value (Aspergillus versicolor) was 0.12 µg/mL and the “MEC Range” value (Aspergillus versicolor) was 0.032 to 2 µg/mL. The “MEC Average (Mode, most frequent MEC)” value (Aspergillus niger [11]) was 0.06 µg/mL, the “MEC Range” value (Aspergillus niger [11]) was 0.016 to 2 µg/mL and the “Kidney concentration, Stone 2004 (radiolabeled compound)” value (“Kidney concentration” for short) ([12]; 0.5 h) was 9.15 µg/g. The “Liver concentration, Stone 2004 (radiolabeled compound)” value (“Liver concentration” for short) ([12]; 0.5 h) was 5.03 µg/g, the “Lung concentration, Stone 2004 (radiolabeled compound)” value (“Lung concentration” below) ([12]; 0.5 h) was 5.12 µg/g and the “Plasma concentration, Stone 2004 (radiolabeled compound)” value (from here on “Plasma concentration”) ([12]; 0.5 h) was 11 µg/mL. For the same compound, the “Kidney concentration” value ([12]; 2 h) was 10.60 µg/g, the “Liver concentration” value ([12]; 2 h) was 7.04 µg/g and the “Lung concentration” value ([12]; 2 h) was 4.50 µg/g. For the same compound, the “Plasma concentration” value ([12]; 2 h) was 6.1 µg/mL, the “Kidney concentration” value ([12]; 24 h) was 11.40 µg/g and the “Liver concentration” value ([12]; 24 h) was 22.20 µg/g. For the same compound, the “Lung concentration” value ([12]; 24 h) was 2.44 µg/g, the “Plasma concentration” value ([12]; 24 h) was 1.74 µg/mL and the “MEC Average (Mode, most frequent MEC)” value (Aspergillus nidulans [13]) was 0.12 µg/mL. For the same compound, the “MEC Range” value (Aspergillus nidulans [13]) was 0.032 to 16 µg/mL and the MIC90 (Candida parapsilosis) was 2 mg/L (≈ 1.83 µM).
For `CCCCCOc1ccc(-c2ccc(-c3ccc(C(=O)N[C@H]4C[C@@H](O)[C@@H](O)NC(=O)[C@@H]5[C@@H](O)[C@@H](C)CN5C(=O)[C@H]([C@@H](C)O)NC(=O)[C@H]([C@H](O)[C@@H](O)c5ccc(O)cc5)NC(=O)[C@@H]5C[C@@H](O)CN5C(=O)[C@H]([C@@H](C)O)NC4=O)cc3)cc2)cc1` [anidulafungin] ({pTerphenylCO(4''-OnC5H11)}-[Orn(4R-OH,5R-OH)]T[Hyp][hTyr(3S-OH,4S-OH)]T[Pro(3S-OH,4S-Me)]; lactam 1-C), the “time levels are maintained above MICs for common pathogens” value ([14]; rat tissues) is listed as ≥ 72 h, the “exposure in tissues (liver, lung, spleen, kidney) relative to plasma” value ([14]; rat) is listed as 9-12 fold and the “time to peak concentrations in tissues” value ([14]; rat) is listed as ≤ 30 min.

— US9675659B2 (Trilogy Therapeutics, Inc., priority 2015, dated 2017)
